The results in this text go back to patent US10098827B2 (L'OREAL, priority 2014, dated 2018).

The test addresses T1, human leukocyte elastase (HLE) (Homo sapiens, UniProt P08246).
T1 construct: CEREP (contract assay)
T1 sequence (P08246 30-267): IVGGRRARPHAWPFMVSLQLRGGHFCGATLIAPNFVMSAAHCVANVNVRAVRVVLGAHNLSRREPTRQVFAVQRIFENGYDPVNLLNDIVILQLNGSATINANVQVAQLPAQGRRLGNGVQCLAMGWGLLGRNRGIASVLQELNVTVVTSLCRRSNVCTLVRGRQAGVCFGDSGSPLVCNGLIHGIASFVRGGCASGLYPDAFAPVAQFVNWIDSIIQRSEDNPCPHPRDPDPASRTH
The experiment in a line: Human Elastase Assay test (CEREP catalog), photometry. Format: biochemical. The following applies: for inhibition at 1000 µM: compound at 1 mM, reference substrate MeOSAAPV-pNa at 0.1 mM, photometry, read-out: Elastase inhibition activity (conc 1 mM); for IC50: human elastase, read-out: IC50 (concentration that produces 50% inhibition of the human elastase activity). The method, then: The molecules have been evaluated in vitro on a Human Elastase Assay test, available in the CEREP catalog.
The results are expressed as a percentage of activity versus a specific control (activity measured with compounds of the invention/control activity without the compound of the invention)×100.
The control is the enzymatic activity of human leukocyte elastase (HLE) on a reference substrate (MeOSAAPV-pNa at 0.1 mM).
The detection method used is photometry.
This method is described in the literature: Adeyemi et al 1990, J. Pharm. Pharmacol. 42, 487-490.
The concentration that produces 50% inhibition of the human elastase activity (IC50) was measured.

The term inhibition denotes the change of the read-out against control, counted positive when it falls. Regarding `CC(=O)N(c1ccc(C(=O)O)c(O)c1)[C@H](C(=O)NCC(=O)O)C(C)C` [Compound 1, N-ACETYL-N-(4-CARBOXY-3-HYDROXYPHENYL)VALYLGLYCINE], the inhibition at 1000 µM amounted to 98%.

With `CC(=O)N(c1cccc(O)c1)[C@H](C(=O)NCC(=O)O)C(C)C` [Compound 7, N-ACETYL-N-(3-HYDROXYPHENYL)VALYLGLYCINE], the inhibition at 1000 µM was determined as 62%.

For `CC(=O)N(c1cccc(C#N)c1)C(C(=O)NCC(=O)O)C(C)C` (centres unmarked) [Compound 4], the inhibition at 1000 µM came out at 35% and the IC50 was determined as 5.6 mM. In addition, where the note is “comparison in words”, the “effectiveness for inhibiting elastase activity compared with the compound of the prior art” value is given as “clearly more effective than the compound of the prior art”.

As to `CC(=O)N(c1cc(C(=O)O)cc(C(=O)O)c1)[C@H](C(=O)NCC(=O)O)C(C)C` [Compound 3, N-ACETYL-N-(3,5-DICARBOXYPHENYL)VALYLGLYCINE], the inhibition at 1000 µM came out at 98%.

`COC(=O)c1cc(C(=O)OC)cc(N(C(C)=O)C(C(=O)NCC(=O)O)C(C)C)c1` (centres unmarked) [Compound 6, N-ACETYL-N-[3,5-BIS(METHOXYCARBOXY)PHENYL]VALYLGLYCINE]: the inhibition at 1000 µM was found to be 65%.

Turning to `CC(=O)N(c1ccc(C(=O)O)c(C(=O)O)c1)[C@H](C(=O)NCC(=O)O)C(C)C` [Compound 2, N-ACETYL-N-(3,4-DICARBOXYPHENYL)VALYLGLYCINE], the inhibition at 1000 µM stood at 98%.

Take `CCOC(=O)c1cc(N(C(C)=O)[C@H](C(=O)NCC(=O)O)C(C)C)ccc1O` [Compound 5, N-ACETYL-N-[3-(ETHOXYCARBONYL)-4-HYDROXYPHENYL]VALYLGLYCINE]: the inhibition at 1000 µM worked out at 62%.

Take `CC(=O)N(c1cccc(C(F)(F)F)c1)C(C(=O)NCC(=O)O)C(C)C` (centres unmarked) [Z, reference compound]: the IC50 worked out at 6.38 mM.

`CC(=O)N(c1ccc(C(=O)O)cc1)C(C(=O)NCC(=O)O)C(C)C` (centres unmarked) [Compound 8]: the inhibition at 1000 µM was 88%.
